Reference: patent US10485772B2, “Compositions for modulating cancer stem cells and uses therefor” (University of Canberra, priority 2014, dated 2019)

Legend:
[1] = tested on: MCF-7 cells (mammospheres); assay: Mammosphere assay in MCF-IM model; type: cell-based, human; settings: bisindolylmaleimide-I 1 μM for 1 hr prior to PMA for 6 days
Method: The following mammosphere culture media components were purchased from StemCell Technologies Inc., BC, Canada: Mammocult Basal medium (Human) (catalogue number-05621), Mammocult Proliferation Supplements (Human) (catalogue number-05622), heparin (catalogue number-07904) and hydrocortisone (catalogue number-[…]). Hydrocortisone powder was freshly dissolved into mammocult basal medium to get 10^−4M solution on the day of experiment. 50 mL of
Mammocult complete media was then prepared by addition of 45 mL Mammocult basal medium, 5 mL mammocult proliferation supplements, 100 μL of the 0.2% heparin stock, 500 μL of 10^−4M stock of hydrocortisone and 50 μL of the PNS. Mammocult complete media was either used on same day or stored for not more than 7 days at 4° C.
MCF-7 cells were grown in a 175 cm^2 cell culture flask and harvested using a cell scraper (Zellschaber, Switzerland) or FACS sorted as specified below. Importantly trypsin treatment was never used for harvesting cells as it interferes with the mammosphere assay. Harvested cells were then re-suspended in 1 mL mammocult complete media and centrifuged at 500×g for 3 minutes at 20° C. The cell pellet was then re-suspended in 1 mL mammocult complete media before counting the cells on the Vi-CELL counter. Cell dilutions were then prepared to stain 40,000 cells/2 mL and 2 mL of cells were seeded in the 6 well-ultra low adherent, flat bottom plates (Costar, Corning Inc, Corning, N.Y., USA). Cells were either stimulated or not treated according to the experimental protocol and incubated at 37° C., under 5% CO2 for 7 days in a Hepa-Filtered Infrared (IR) Incubator (Forma Scientific Inc., Materietta, Ohio). Mammospheres larger than 60 μm were counted per well on day 7 and pictures were taken with an Olympus microscope. All the mammosphere assays were performed in duplicate wells and the entire procedure was repeated at least twice.
Mammosphere culture media components were purchased from StemCell Technologies and mammosphere assays were performed as recommended by the manufacturer's guidelines. Briefly, 40,000 cells/2 ml cell dilutions were then prepared and 2 ml of cells were seeded in the 6 well-ultralow adherent, flat bottom plates (Costar). Mammospheres larger than 60 μm were counted per well on day 7 and pictures were taken.

[2] = tested on: laminin-5, uPAR and CD44 transcripts in MDA-MB 231 cells; assay: TaqMan real time PCR transcript analysis of EMT/CSC genes in basal/metastatic model; type: cell-based, human; settings: bisindolylmaleimide-I 4 μM
Method: For most of the experiments, total RNA was extracted from 5×10^5 to 1×10^6 MCF-7 cells unless otherwise specified. Cells were first thawed in 1 mL of Trizol® Reagent (Invitrogen, Carlsbad, Calif.) for 5 minutes at room temperature to inactivate RNases, followed by trituration to dislodge the cell pellet. The dissociated cells suspended in Tizol (1 mL) were transferred into a 1.5 mL Eppendorf tube for 5 minutes for homogenization. RNA was then extracted by addition of 200 μL chloroform and mixing was done vigorously before centrifuging the samples at 8,000×g for 30 minutes at 4° C. The aqueous layer was then collected into a fresh 1.5 mL Eppendorf tube and an equal volume of isopropanolol was added to the aqueous layer and mixed gently. After 5 minutes at room temperature, samples were either snap frozen on dry ice and stored at −70° C. overnight or until the isolation procedure could be re-commenced. […] Next, 2 μL of the sample was taken out to measure RNA quality and quantity on Nano-drop® Spectrophotometer ND 1000 (Nanodrop Technologies, Inc., Wilmington, Del., USA) using ND-1000 V3.30 software. […]
Superscript™® III kit (Invitrogen, Carlsbad, Calif.) was used for cDNA synthesis. […] All the samples were either snap frozen on dry ice or used immediately for quantitative Real-Time PCR analysis. […]

[3] = listed as Broad spectrum PKC pathway inhibitor

For CN(C)CCCn1cc(C2=C(c3c[nH]c4ccccc34)C(=O)NC2=O)c2ccccc21 [bisindolylmaleimide-I], the mammosphere formation [1] was “reduce mammosphere formation”, the mammosphere formation [1, 3] was “inhibition of EMT and CSC formation” and the “transcription of key inducible EMT/CSC genes (laminin-5, uPAR, CD44)” value [2] was “inhibits transcription of key inducible EMT/CSC genes”. For the same compound, the “transcription of key inducible EMT/CSC genes (laminin-5, uPAR, CD44)” value [2, 3] was “inhibition of EMT and CSC formation”.
